The numbers were not newly measured in patent publication US7141532B2, “Process for the preparation of a dry pesticidal composition containing a dicarboxylate component” (Monsanto Technology LLC, priority 2002, dated 2006), which cites them from elsewhere.

For `O=C(O)C(=O)O` [Oxalic acid], the pK1 result (first proton) is given as “about 1.25”. Also, under “second proton”, the pK2 result was “about 4.29”.
